Experimental data as given in the supplement of paper PMC9938120.

Tests used:
Assay in all cases: drug sensitivity score (DSS3, normalised partial AUC of % inhibition dose-response) (DSS (score)); higher = more sensitive (stronger inhibition of viability); extreme values may be limits of the assay
FMOC02_1 = patient-derived low-grade serous ovarian cancer cells; conditions: 72 h; library: FO5A; assay format: 2D, 384-well, CellTiter-Glo
Method in brief: (§1)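 Patient-derived ovarian cancer cells (early passage, under 10) were dispensed onto 384-well flat clear-bottom plates pre-plated with compounds at five concentrations covering a 10,000-fold range. Plates were incubated 72 h at 37 °C, 5% CO2, and viability was read with CellTiter-Glo. Data were processed in Breeze. The drug sensitivity score (DSS3) is a partial area under the percent-inhibition dose-response curve, divided by the log of the upper asymptote; higher means more sensitive.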

FMOC02_2 = patient-derived low-grade serous ovarian cancer cells; conditions: 72 h; library: FO5A; assay format: 2D, 384-well, CellTiter-Glo
Method in brief: as §1

FMOC02_3 = patient-derived low-grade serous ovarian cancer cells; conditions: 72 h; library: FO5A; assay format: 2D, 384-well, CellTiter-Glo
Method in brief: as §1

FMOC03 = patient-derived mucinous ovarian cancer cells; conditions: 72 h; library: FO5A; assay format: 2D, 384-well, CellTiter-Glo
Method in brief: as §1

FMOC04 = patient-derived high-grade serous ovarian cancer cells; conditions: 72 h; library: FO5A; assay format: 2D, 384-well, CellTiter-Glo
Method in brief: as §1

FMOC06 = patient-derived mucinous ovarian cancer cells; conditions: 72 h; library: FO5A; assay format: 2D, 384-well, CellTiter-Glo
Method in brief: as §1

FMOC09 = patient-derived high-grade serous ovarian cancer cells; conditions: 72 h; library: FO5A; assay format: 2D, 384-well, CellTiter-Glo
Method in brief: as §1

FMOC11 = patient-derived high-grade serous ovarian cancer cells; conditions: 72 h; library: FO5A; assay format: 2D, 384-well, CellTiter-Glo
Method in brief: as §1

FMOC14 = patient-derived high-grade serous ovarian cancer cells; conditions: 72 h; library: FO5A; assay format: 2D, 384-well, CellTiter-Glo
Method in brief: as §1

FMOC17 = patient-derived low-grade serous ovarian cancer cells; conditions: 72 h; library: FO5A; assay format: 2D, 384-well, CellTiter-Glo
Method in brief: as §1

FMOC22 = patient-derived mucinous ovarian cancer cells; conditions: 72 h; library: FO5A; assay format: 2D, 384-well, CellTiter-Glo
Method in brief: as §1

FMOC24 = patient-derived high-grade serous ovarian cancer cells; conditions: 72 h; library: FO5A; assay format: 2D, 384-well, CellTiter-Glo
Method in brief: as §1

FMOC25_1 = patient-derived low-grade serous ovarian cancer cells; conditions: 72 h; library: FO4B; assay format: 2D, 384-well, CellTiter-Glo
Method in brief: as §1

FMOC25_2 = patient-derived low-grade serous ovarian cancer cells; conditions: 72 h; library: FO5A; assay format: 2D, 384-well, CellTiter-Glo
Method in brief: as §1

FMOC27 = patient-derived low-grade serous ovarian cancer cells; conditions: 72 h; library: FO5A; assay format: 2D, 384-well, CellTiter-Glo
Method in brief: as §1

FMOC28 = patient-derived low-grade serous ovarian cancer cells; conditions: 72 h; library: FO5A; assay format: 2D, 384-well, CellTiter-Glo
Method in brief: as §1

| SMILES | drug sensitivity score (FMOC02_1) | drug sensitivity score (FMOC02_2) | drug sensitivity score (FMOC02_3) | drug sensitivity score (FMOC03) | drug sensitivity score (FMOC04) | drug sensitivity score (FMOC06) | drug sensitivity score (FMOC09) | drug sensitivity score (FMOC11) | drug sensitivity score (FMOC14) | drug sensitivity score (FMOC17) | drug sensitivity score (FMOC22) | drug sensitivity score (FMOC24) | drug sensitivity score (FMOC25_1) | drug sensitivity score (FMOC25_2) | drug sensitivity score (FMOC27) | drug sensitivity score (FMOC28) |
| --- | --- | --- | --- | --- | --- | --- | --- | --- | --- | --- | --- | --- | --- | --- | --- | --- |
| Cc1cccc(-c2nn3c(c2-c2ccnc4ccc(C(N)=O)cc24)CCC3)n1 [Galunisertib] | 0 | 0 | 0 | 0 | 0 | 0 | 0 | 0 | 0 | 0 | 0 | 0.35 | 0 | 0 | 0 | 0 |
| CN1CC[C@@H](NC(=O)Nc2ccc(C#N)cc2)C[C@@H]1c1nc2ccccc2[nH]1 [Glasdegib] | 0 | 0.4 | 0 | 0 | 0 | 0 | 0 | 0 | 0 | 0 | 0 | 2.75 | 0.1 | 5.2 | 0 | 3.7 |
| CN1CCN(C2CCN(C(=O)Nc3cc(Oc4ccc(NC(=O)C5(C(=O)Nc6ccc(F)cc6)CC5)c(F)c4)ccn3)CC2)CC1 [Golvatinib] | 1.2 | 1.2 | 2.2 | 0.5 | 0.7 | 0 | 0 | 0 | 0 | 0.2 | 0 | 3.35 | 0.9 | 4.3 | 0 | 0 |
| CC(C)C[C@H](NC(=O)[C@@H](COC(C)(C)C)NC(=O)[C@H](Cc1ccc(O)cc1)NC(=O)[C@H](CO)NC(=O)[C@H](Cc1c[nH]c2ccccc12)NC(=O)[C@H](Cc1cnc[nH]1)NC(=O)[C@@H]1CCC(=O)N1)C(=O)N[C@@H](CCCNC(=N)N)C(=O)N1CCC[C@H]1C(=O)NNC(N)=O [Goserelin] | 0 | 0 | 0 | 0 | 0 | 0 | 0 | 0 | 0 | 0 | 0 | 0 | 0 | 0 | 0 | 0 |
| O=S(=O)(c1cccc2c(O)nccc12)N1CCCNCC1 [Hydroxyfasudil] | 0 | 0 | 0 | 0 | 0 | 0 | 0 | 0 | 0 | 0 | 0 | 1.25 | 0 | 0 | 0 | 0 |
| NC(=O)NO [Hydroxyurea] | 5.2 | 1.3 | 4.8 | 0.7 | 0.8 | 1.9 | 0.9 | 2.9 | 0 | 1.1 | 0.7 | 1.05 | 0.5 | 3.9 | 1.6 | 0.9 |
| O=C(O)c1ccc(O)c2ncccc12 [IOX-1] | 0 | 0.2 | 0 | 3 | 0 | 1 | 0 | 1.6 | 1.9 | 0 | 1.6 | 0 | 0 | 0 | 0 | 0 |
| O=C(O)CNC(=O)c1c(O)c2ccccc2n(Cc2ccccc2)c1=O [IOX-2] | 0.5 | 0.5 | 0 | 0 | 0 | 0 | 0 | 0 | 0 | 0 | 0 | 1.75 | 0 | 0.9 | 0 | 3.2 |
| CC[C@H](Nc1ncnc2[nH]cnc12)c1nc2cccc(F)c2c(=O)n1-c1ccccc1 [Idelalisib] | 2.3 | 2.4 | 3.7 | 0.4 | 0.1 | 2.7 | 2 | 1.9 | 0 | 2.8 | 0.1 | 0 | 1.4 | 1.1 | 0.4 | 3.3 |
| Cc1ccc(NC(=O)c2ccc(CN3CCN(C)CC3)cc2)cc1Nc1nccc(-c2cccnc2)n1 [Imatinib] | 0.3 | 1.2 | 1.6 | 0.4 | 0 | 0 | 0 | 0 | 2 | 0 | 0 | 2.75 | 0.3 | 0.1 | 0 | 0 |
| CC(C)Cn1cnc2c(N)nc3ccccc3c21 [Imiquimod] | 0 | 0 | 0 | 0 | 0 | 0.5 | 0 | 0 | 0 | 0 | 0 | 0 | 0 | 0 | 0 | 0.9 |
| CCC(C)n1ncn(-c2ccc(N3CCN(c4ccc(OCC5COC(Cn6cncn6)(c6ccc(Cl)cc6Cl)O5)cc4)CC3)cc2)c1=O (stereo not drawn) [Itraconazole] | 5.3 | 3 | 6.6 | 4.5 | 0.1 | 0.7 | 0.8 | 1.2 | 1.3 | 4.8 | 0.2 | 4.9 | 4 | 4.6 | 0.6 | 4.4 |
| C/C(=C\c1csc(C)n1)[C@@H]1C[C@@H]2O[C@]2(C)CCC[C@H](C)[C@H](O)[C@@H](C)C(=O)C(C)(C)[C@@H](O)CC(=O)N1 [Ixabepilone] | 4.1 | 1.7 | 2.6 | 3 | 1.85 | 2.7 | 1.7 | 3.1 | 0 | 4.4 | 2.3 | 0 | 1.1 | 2.5 | 0.9 | 0 |
| CS(=O)(=O)CCNCc1ccc(-c2ccc3ncnc(Nc4ccc(OCc5cccc(F)c5)c(Cl)c4)c3c2)o1 [Lapatinib] | 5.4 | 6.9 | 4.6 | 5.3 | 0 | 1 | 2.9 | 3.3 | 0.5 | 3 | 0 | 0.05 | 3.6 | 3.7 | 4.3 | 4 |
| Oc1ccc2c(c1)CC[C@H](c1ccccc1)[C@@H]2c1ccc(OCCN2CCCC2)cc1 [Lasofoxifene] | 0 | 0 | 0 | 0 | 0 | 0 | 0 | 0 | 1.1 | 0 | 0 | 0 | 0 | 0 | 0 | 0 |
| Nc1cccc2c1CN(C1CCC(=O)NC1=O)C2=O (stereo not drawn) [Lenalidomide] | 0 | 0 | 2.4 | 0 | 0 | 0.1 | 0 | 0 | 0 | 0 | 0 | 0.6 | 0 | 0 | 0 | 0 |
| COc1cc2nccc(Oc3ccc(NC(=O)NC4CC4)c(Cl)c3)c2cc1C(N)=O [Lenvatinib] | 0 | 0 | 0 | 0 | 0 | 0 | 0 | 0 | 0 | 0 | 0 | 0 | 0 | 0.1 | 0 | 0 |
| N#Cc1ccc(C(c2ccc(C#N)cc2)n2cncn2)cc1 [Letrozole] | 0 | 0 | 0 | 0 | 0 | 0 | 0 | 0 | 0 | 0 | 0 | 0 | 0 | 0 | 0 | 0 |
| Cc1ccc(F)c(NC(=O)Nc2ccc(-c3cccc4[nH]nc(N)c34)cc2)c1 [Linifanib] | 0 | 0 | 0 | 0 | 0 | 0 | 0 | 0 | 0 | 0 | 0 | 0 | 0 | 0 | 0 | 0 |
| C[C@]1(O)C[C@@H](c2nc(-c3ccc4ccc(-c5ccccc5)nc4c3)c3c(N)nccn32)C1 [Linsitinib] | 1.2 | 2.7 | 6.9 | 0.1 | 2.5 | 0.8 | 0.1 | 0.1 | 0 | 0.6 | 0 | 2.1 | 3.7 | 5.8 | 0 | 4.9 |
| Nc1nc(OCc2cc(Br)cs2)c2[nH]cnc2n1 [Lomeguatrib] | 0 | 0.8 | 0.4 | 0 | 0 | 0 | 0 | 0 | 0 | 0 | 0 | 0 | 0 | 1.4 | 0 | 2.6 |
| Cc1c(F)cc(C(=O)NC2CC2)cc1-c1ccc(C(=O)NCC(C)(C)C)cn1 [Losmapimod] | 0.1 | 0 | 0 | 0 | 0 | 1 | 0 | 1.4 | 0 | 0 | 0 | 0 | 0 | 0 | 0 | 0 |
| CC[C@H](C)C(=O)O[C@H]1C[C@@H](C)C=C2C=C[C@H](C)[C@H](CC[C@@H]3C[C@@H](O)CC(=O)O3)[C@H]21 [Lovastatin] | 0 | 0.3 | 3.9 | 0.5 | 0 | 0.9 | 3.3 | 1.3 | 0 | 1.1 | 2.1 | 2.5 | 0 | 1 | 0 | 0.1 |
